Measured values from patent US20260250322A1, “NEW PEPTIDES AS SELECTIVE IL-23 RECEPTOR INHIBITORS” (SANOFI, priority 2023, published 2026).
Bridge positions count the residues as written; N and C are the ends. Square brackets hold non-standard residues; d marks the D form. Peptide text beside a SMILES is read from it. 1Nal = N[C@@H](Cc1cccc2ccccc12)C(=O)O; 2Nal = N[C@@H](Cc1ccc2ccccc2c1)C(=O)O; Aib = CC(C)(N)C(=O)O

Legend:
[1] = Chemical stability (relative purity loss) of peptide compounds in buffer formulations; format: physicochemical
Protocol: Purity of a compound batch was determined through UHPLC/MS prior to chemical stability measurement using Method A.
For stability assessment, the target concentration was 300 μM pure compound. Therefore, solutions from solid samples were prepared in the following buffer systems with a concentration of ~300 µM compound based on the previously determined % purity. The solid samples were obtained by drying down aliquots of a freshly prepared acetonitrile stock solution using a THERMO SPEEDVAC vacuum centrifuge. The dry down time was 3 hours.
The following buffer systems were applied: • Solubility buffer system A) 100 mM phosphate buffer pH 7.4. • Solubility buffer system B) 100 mM phosphate buffer pH 6.5. • Solubility buffer system C) 100 mM HCl pH 1.2.
Prepared solutions were filtered through […] pore size and filled into sterilized glass containers under laminar flow conditions.
[…] After this time course, the samples were centrifuged for 15 min at 2500 RCF. Then 1.5 μl of the undiluted supernatant were analysed with UHPLC-UV.
The chemical stability was rated through the relative loss of purity calculated by the equation:
[(purity after 0 hours at 37° C.)(purity after 24 hours at 37° C.)]/(purity after 0 hours at 37° C.)]*100%.
The purity is calculated as [(peak area peptide)/(total peak area)]*100%.
Buffer composition: 100 mM HCl pH 1.2, 100 mM phosphate buffer pH 6.5, 100 mM phosphate buffer pH 7.4

[2] = test system: IL-23 induced STAT3 signaling; assay: Inhibition of IL-23 induced STAT3 signaling in HEK-Blue IL-23 cells (SEAP reporter); format: cell-based; conditions: human IL-23 0.25 ng/ml, read-out: Inhibition of IL-23 induced pSTAT3 (IC50 nM)
Source text: HEK-Blue™ IL-23 cells (Invivogen) are designed for the detection of bioactive human (hIL-23) and murine IL-23 (mIL-23) by monitoring the activation of the STAT3 pathway. Binding of IL-23 to its receptor on the surface of HEK-Blue™ IL-23 cells triggers a signaling cascade leading to the activation of STAT3 and the subsequent production of secreted embryonic alkaline phosphatase (SEAP). This can be readily assessed using QUANTI-Blue™ Solution, a SEAP detection reagent.
HEK-Blue™ IL-23 cells were cultured as described by Invivogen.
On the first day of assay 10 μL of the HEK-Blue IL-23 cell suspension (final concentration: 10,000 cells/well) and 10 μl of serially diluted compound solutions were dispensed into a 384-well assay plate. After pre-incubation of the reaction mixtures at 37° C./5% CO2/95% humidity for 60 minutes, 10 μl of the humanIL-23 cytokine (final concentration: 0.25 ng/ml) was added to each well for the STAT3 signaling activation. The plate was incubated overnight at 37° C./5% CO2/95% humidity.
On the second day 20 μl per well of Quanti-Blue detection solution (prepared according to the manufacture instruction) was dispensed into a new 384-well plate and followed by the transfer of 5 μl supernatant of the overnight incubated cell/sample mixtures. After incubation of 45 min at room temperature signals were measured with PHERAstar (BMG) at OD 620-655 nm.
Dose response data were fitted with XLfit.

[3] = pH 6.5 (100 mM phosphate buffer)
[4] = pH 7.4 (100 mM phosphate buffer)

Structure (SMILES)	Conc. [mg/ml] 0 h ([1]; pH 1.2 (100 mM HCl)) [mg/mL]	Conc. [mg/ml] 24 h 37° C. ([1]; pH 1.2 (100 mM HCl)) [mg/mL]	Mass Balance [%] 24 h 37° C. ([1]; pH 1.2 (100 mM HCl)) [%]	Relative Purity Loss [%] 24 h 37° C. ([1]; pH 1.2 (100 mM HCl)) [%]	Conc. [mg/ml] 0 h [1, 3] [mg/mL]	Conc. [mg/ml] 24 h 37° C. [1, 3] [mg/mL]	Mass Balance [%] 24 h 37° C. [1, 3] [%]	Relative Purity Loss [%] 24 h 37° C. [1, 3] [%]	Conc. [mg/ml] 0 h [1, 4] [mg/mL]	Conc. [mg/ml] 24 h 37° C. [1, 4] [mg/mL]	Mass Balance [%] 24 h 37° C. [1, 4] [%]	Relative Purity Loss [%] 24 h 37° C. [1, 4] [%]	IC50 [2] [nM]
CC(=O)N[C@@H]1CCCCNC(=O)C[C@@H](C(=O)N[C@@H](CC(N)=O)C(=O)N[C@@H](CC(N)=O)C(N)=O)NC(=O)C(C)(C)NC(=O)[C@H](Cc2ccc3ccccc3c2)NC(=O)[C@H](Cc2ccc(O)cc2)NC(=O)[C@H](CCCNC(=N)N)NC(=O)[C@H](CCC(N)=O)NC(=O)[C@H](Cc2c[nH]c3ccccc23)NC(=O)[C@H]([C@@H](C)O)NC(=O)[C@H](CC(N)=O)NC1=O [compound 4] (Ac-[dK]NTWQRY[2Nal][Aib]DNN-NH2; lactam 1-10)	1.4	1.0	−2.3	22.9	1.4	1.3	−4.6	0.7	1.4	1.3	−2.2	2.7	339
COc1ccc(C[C@@H]2NC(=O)[C@H](CCCNC(=N)N)NC(=O)[C@H](CCC(N)=O)NC(=O)[C@H](Cc3c[nH]c4ccccc34)NC(=O)[C@H]([C@@H](C)O)NC(=O)[C@H](CC(N)=O)NC(=O)[C@@H](NC(C)=O)CCCCNC(=O)C[C@@H](C(=O)N[C@@H](CC(N)=O)C(=O)N[C@@H](CC(N)=O)C(N)=O)NC(=O)C(C)(C)NC(=O)[C@H](Cc3cccc4ccccc34)NC2=O)cc1 [compound 9] (Ac-KNTWQRY(Me)[1Nal][Aib]DNN-NH2; lactam 1-10)	1.5	1.1	−1.9	22.3	1.2	1.2	−1.8	1.2	1.5	1.4	−3.2	2.6	1610
COc1ccc(C[C@@H]2NC(=O)[C@H](CCCNC(=N)N)NC(=O)[C@H](CCC(N)=O)NC(=O)[C@H](Cc3c[nH]c4ccccc34)NC(=O)[C@H]([C@@H](C)O)NC(=O)[C@H](CC(N)=O)NC(=O)[C@H](NC(C)=O)CCCCNC(=O)CC[C@@H](C(=O)N[C@@H](CC(N)=O)C(=O)N[C@@H](CC(N)=O)C(N)=O)NC(=O)C(C)(C)NC(=O)[C@H](Cc3cccc4ccccc34)NC2=O)cc1 [compound 16] (Ac-[dK]NTWQRY(Me)[1Nal][Aib]ENN-NH2; lactam 1-10)													8010
